Data as given in BindingDB's records for doi:10.1016/j.ejmech.2013.06.048 (University of Siena, 2013).
pIC50: −log10 of the molar value.

Experiment: Inhibition of estrogen receptor alpha-mediated human MCF7 cell growth inhibition

Structure (SMILES)	pIC50
COc1cc(C(=O)CCc2cc3c(cc2OC)CC[C@@H]2[C@@H]3CC[C@]3(C)[C@@H](O)CC[C@@H]23)ccc1O	4.19
COc1cc2c(cc1C=O)[C@H]1CC[C@]3(C)[C@@H](OC(C)=O)CC[C@H]3[C@@H]1CC2	4.19
COc1ccc2c(c1)CC[C@@H]1[C@@H]2CC[C@]2(C)[C@@H](OC(C)=O)CC[C@@H]12	4.19
